Data: ChEMBL document CHEMBL1155760, “Quinoline alkaloids and other constituents of Melicope semecarpifolia with antiplatelet aggregation activity” (2001)

How the values were obtained:
Conditions in all cases: Oryctolagus cuniculus
[1] = Antiplatelet activity against washed rabbit platelet assessed as arachidonic acid-induced platelet aggregation at 50 ug/mL preincubated 3 mins before arachidonic acid challenge by turbidimetric method
[2] = Antiplatelet activity against washed rabbit platelet assessed as arachidonic acid-induced platelet aggregation at 100 ug/mL pre-incubated 3 mins before arachidonic acid challenge by turbidimetric method
[3] = Antiplatelet activity against washed rabbit platelet assessed as platelet activating factor-induced platelet aggregation at 100 ug/mL pre-incubated 3 mins before PAF challenge by turbidimetric method
[4] = Antiplatelet activity against washed rabbit platelet assessed as platelet activating factor-induced platelet aggregation at 50 ug/mL preincubated 3 mins before PAF challenge by turbidimetric method
[5] = Antiplatelet activity against washed rabbit platelet assessed as thrombin-induced platelet aggregation at 100 ug/mL pre-incubated 3 mins before thrombin challenge by turbidimetric method
[6] = Antiplatelet activity against washed rabbit platelet assessed as collagen-induced platelet aggregation at 50 ug/mL pre-incubated 3 mins before collagen challenge by turbidimetric method
[7] = Antiplatelet activity against washed rabbit platelet assessed as arachidonic acid-induced platelet aggregation at 20 ug/mL pre-incubated 3 mins before arachidonic acid challenge by turbidimetric method
[8] = Antiplatelet activity against washed rabbit platelet assessed as collagen-induced platelet aggregation at 20 ug/mL pre-incubated 3 mins before collagen challenge by turbidimetric method
[9] = Antiplatelet activity against washed rabbit platelet assessed as collagen-induced platelet aggregation at 100 ug/mL pre-incubated 3 mins before collagen challenge by turbidimetric method
[10] = Antiplatelet activity against washed rabbit platelet assessed as platelet activating factor-induced platelet aggregation at 20 ug/mL pre-incubated 3 mins before PAF challenge by turbidimetric method
[11] = Antiplatelet activity against washed rabbit platelet assessed as thrombin-induced platelet aggregation at 50 ug/mL preincubated 3 mins before thrombin challenge by turbidimetric method
[12] = Antiplatelet activity against washed rabbit platelet assessed as thrombin-induced platelet aggregation at 20 ug/mL pre-incubated 3 mins before thrombin challenge by turbidimetric method
[13] = Antiplatelet activity against washed rabbit platelet assessed as arachidonic acid-induced platelet aggregation at 5 ug/mL pre-incubated 3 mins before arachidonic acid challenge by turbidimetric method
[14] = Antiplatelet activity against washed rabbit platelet assessed as arachidonic acid-induced platelet aggregation at 10 ug/mL pre-incubated 3 mins before arachidonic acid challenge by turbidimetric method

COc1ccc2ccc(=O)oc2c1CC=C(C)C [OSTHOLE]
Aggregation % at 50 µg/mL [1]: 52.6%
Aggregation % at 100 µg/mL [2]: 0%
Aggregation % at 100 µg/mL [3]: 0%
Aggregation % at 50 µg/mL [4]: 88.6%
Aggregation % at 100 µg/mL [5]: 86.6%
Aggregation % at 50 µg/mL [6]: 7%
Aggregation % at 20 µg/mL [7]: 84.5%
Aggregation % at 20 µg/mL [8]: 88.1%
Aggregation % at 100 µg/mL [9]: 7.4%
Aggregation % at 20 µg/mL [10]: 90%

COCc1c(OC)c2ccc(OC)cc2[nH]c1=O [SEMECARPIFOLINE]
Aggregation % at 100 µg/mL [2]: 81%
Aggregation % at 100 µg/mL [3]: 88.8%
Aggregation % at 100 µg/mL [5]: 85.8%
Aggregation % at 100 µg/mL [9]: 82.7%

CC(=O)Oc1ccccc1C(=O)O [ASPIRIN]
Aggregation % at 50 µg/mL [1]: 7.8%
Aggregation % at 50 µg/mL [4]: 91.2%
aggregation at 50 µg/mL [11]: 94.2%
Aggregation % at 50 µg/mL [6]: 88.4%
Aggregation % at 20 µg/mL [7]: 11.7%

CCCCCCCC/C=C\CCCCCCCC(=O)OC [METHYL OLEATE]
Aggregation % at 20 µg/mL [12]: 86.7%
Aggregation % at 20 µg/mL [7]: 81.7%
Aggregation % at 20 µg/mL [8]: 84.4%
Aggregation % at 20 µg/mL [10]: 89.4%

COc1cc(O)c2c(=O)c(OC)c(-c3ccc(OC)c(O)c3)oc2c1 [AYANIN]
Aggregation % at 5 µg/mL [13]: 81.9%
Aggregation % at 50 µg/mL [1]: 38%
Aggregation % at 100 µg/mL [2]: 13.3%
Aggregation % at 100 µg/mL [3]: 88.3%
Aggregation % at 100 µg/mL [5]: 85.4%
Aggregation % at 50 µg/mL [6]: 66.1%
Aggregation % at 10 µg/mL [14]: 77.2%
Aggregation % at 20 µg/mL [7]: 66.3%
Aggregation % at 20 µg/mL [8]: 80.3%
Aggregation % at 100 µg/mL [9]: 43.1%

CC(C)=CCc1c(O)ccc2ccc(=O)oc12 [OSTHENOL]
Aggregation % at 50 µg/mL [1]: 84.8%
Aggregation % at 100 µg/mL [2]: 23.2%
Aggregation % at 100 µg/mL [3]: 89.8%
Aggregation % at 100 µg/mL [5]: 90.4%
Aggregation % at 50 µg/mL [6]: 79.2%
Aggregation % at 20 µg/mL [8]: 87%
Aggregation % at 100 µg/mL [9]: 13.7%

COc1ccc2c(OC)c3c(nc2c1OC)O[C@H](C(C)(C)O)C3
Aggregation % at 100 µg/mL [2]: 81.7%
Aggregation % at 100 µg/mL [3]: 89.8%
Aggregation % at 100 µg/mL [5]: 86.5%
Aggregation % at 100 µg/mL [9]: 84.4%

COc1cc2nc3occc3c(OC)c2cc1OC [KOKUSAGININE]
Aggregation % at 50 µg/mL [1]: 0%
Aggregation % at 100 µg/mL [2]: 0%
Aggregation % at 100 µg/mL [3]: 70.7%
Aggregation % at 50 µg/mL [4]: 88.9%
Aggregation % at 50 µg/mL [6]: 80.6%
Aggregation % at 100 µg/mL [9]: 15.2%

COc1cc(C(=O)O)cc(OC)c1O [SYRINGIC ACID]
Aggregation % at 100 µg/mL [2]: 83.2%
Aggregation % at 100 µg/mL [3]: 89.6%
Aggregation % at 100 µg/mL [5]: 88.3%
Aggregation % at 100 µg/mL [9]: 85.1%

COc1ccc2c(OC)c3c(nc2c1OC)O[C@@H](C(C)(C)O)[C@H]3O
Aggregation % at 100 µg/mL [2]: 78.3%
Aggregation % at 100 µg/mL [3]: 89.4%
Aggregation % at 100 µg/mL [5]: 85.4%
Aggregation % at 100 µg/mL [9]: 79%

COc1c2ccc(O)cc2nc2occc12 [CONFUSAMELINE]
Aggregation % at 100 µg/mL [2]: 0%
Aggregation % at 100 µg/mL [3]: 78.6%
Aggregation % at 100 µg/mL [9]: 11.4%
